The values that follow come from patent US20050020576A1, “Kappa agonist compounds and pharmaceutical formulations thereof” (priority 1996, published 2005).

Where “and” joins values, the source holds several entries; their conditions need not be identical. Equal entries are not always repeated. Structures can show the parent of a compound that is named as a salt.

Data set [1] concerns the target T1, cloned human kappa receptor (Homo sapiens, UniProt P41145). Put plainly: biochemical. The class given is binding.
Data set [2] has as its target T1, cloned human kappa receptor. Briefly: [3H]U69593 (agonist) binding to the cloned human kappa receptor.
The test system of data set [3] is formalin-induced flinching. Put plainly: animal or person. The class given is in vivo, male Sprague-Dawley rats. Particulars: rat, in vivo.
The mark [4] stands for this setting: read-out: Ki(nM) [3H]-Diprenorphin κ.

T1 sequence (P41145 whole entry): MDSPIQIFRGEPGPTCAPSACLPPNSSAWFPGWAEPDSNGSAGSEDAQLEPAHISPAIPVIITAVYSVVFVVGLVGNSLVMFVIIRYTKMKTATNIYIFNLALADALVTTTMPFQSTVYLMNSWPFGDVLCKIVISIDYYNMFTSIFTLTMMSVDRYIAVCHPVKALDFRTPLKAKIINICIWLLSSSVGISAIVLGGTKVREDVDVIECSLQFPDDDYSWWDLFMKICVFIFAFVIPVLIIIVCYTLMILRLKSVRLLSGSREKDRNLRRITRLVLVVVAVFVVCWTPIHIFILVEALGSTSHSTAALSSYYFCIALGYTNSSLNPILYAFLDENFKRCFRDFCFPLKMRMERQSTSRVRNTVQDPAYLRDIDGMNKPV

As to `CS(=O)(=O)c1ccc(CC(=O)N2CCN(S(C)(=O)=O)CC2CN2CCCC2)cc1` (racemic) [(R,S-8b), (R,S)-4-Methanesulfonyl-1-[(4-methylsulfonylphenyl)acetyl]-2-[(1-pyrrolidinyl)-methyl]piperazine hydrochloride], the inhibition at 1 µM in data set [1] (read-out: 3H-Diprenorphin, % @ 1 uM) worked out at 41%. Moreover, the Ki in data set [2] (Ki, nM 3H-U-69,593) is 20 nM and 31 nM.
Consider `CS(=O)(=O)N1CCN(C(=O)Cc2ccccc2[N+](=O)[O-])[C@H](CN2CCCC2)C1.Cl` (racemic) [(R,S-8c), (R,S)-4-Methanesulfonyl-1-[(2-nitrophenyl)acetyl]-2-[(1-pyrrolidinyl)-methyl]piperazine hydrochloride], for which the “3H-Diprenorphin, % @ 1 uM” value in data set [1] worked out at 15% @ 1 uM. Besides, the “3H-U-69,593, % @ 1 uM” value in data set [2] was 51% @ 1 uM.
In the case of `CN(C(=O)Cc1ccc(C(F)(F)F)cc1)[C@H](CN1CCCC1)c1cccc(NS(C)(=O)=O)c1.Cl` [Example 3d, 2-(4-Trifluoromethylphenyl)-N-methyl-N-{[1S]-1-[3-[(methylsulfonyl)amino]phenyl]-2-[1-pyrrolidinyl]ethyl}acetamide hydrochloride], the melting point was in the range of 173 to 175 °C. This compound also came in with an inhibitory constant (Ki) in data set [1] (Ki (nM) [3H]-Diprenorphin κ) of 0.28 nM. The “Late Phase Formalin A50” value in data set [3] worked out at 16.0 mg/kg.
The compound `CN(C(=O)Cc1ccc(S(C)(=O)=O)cc1)[C@H](CN1CCCC1)c1cccc(NS(C)(=O)=O)c1.CS(=O)(=O)O` [Example 3e, 2-(4-Methanesulfonylphenyl)-N-methyl-N-{[1S]-1-[3-[(methylsulfonyl)amino]phenyl]-2-[1-pyrrolidinyl]ethyl}acetamide methanesulfonate] showed a melting point of 140 to 142 °C. Further, affinity in data set [1] (Ki (nM) [3H]-Diprenorphin κ) was put at a Ki of 3.2 nM. Moreover, the “Late Phase Formalin, % @ 300” value in data set [3] amounted to 71% @ 300.
Turning to `CN(C(=O)Cc1ccc(Cl)c(Cl)c1)[C@H](CN1CCCC1)c1cccc(NS(C)(=O)=O)c1.Cl` [Example 3f, 2-(3,4-Dichlorophenyl)-N-methyl-N-{[1S]-1-[3-[(methylsulfonyl)amino]phenyl]-2-[1-pyrrolidinyl]ethyl}acetamide hydrochloride], the melting point is 240 to 242 °C. This compound came in with a Ki in data set [1] (Ki (nM) [3H]-Diprenorphin κ) of 0.18 nM. In addition, the “Late Phase Formalin A50” value in data set [3] is reported as 8.9 mg/kg.
For `CN(C(=O)Cc1ccc(Cl)c(Cl)c1)[C@H](CN1CCCC1)c1cccc(NC(=O)/C=C\C(=O)O)c1` [Example 3h], the melting point lay within 174 to 176 °C. The same compound came in with an inhibition constant Ki in data set [1] (Ki (nM) [3H]-Diprenorphin κ) of 1.8 nM. In addition, the “Late Phase Formalin, % @ 10” value in data set [3] turned out to be 59% @ 10.
On to `CN(C(=O)Cc1ccccc1C(=O)O)[C@H](CN1CCCC1)c1ccccc1.Cl` [Example 3kk, 2-(2-Carboxyphenyl)-N-methyl-N-{[1S]-1-phenyl-2-(1-pyrrolidinyl)ethyl}acetamide hydrochloride], for which the melting point is 230 to 232 °C (dec.). The “[3H]-Diprenorphin κ, % @ 1 μM” value in data set [1] was found to be 53% @ 1 μM. Besides, the “Late Phase Formalin, % @ 300” value in data set [3] turned out to be 23% @ 300.
`CN(C(=O)Cc1ccc(Cl)c(S(N)(=O)=O)c1)[C@H](CN1CCCC1)c1ccccc1.CS(=O)(=O)O` [Example 3m, 2-(3-Sulfamoyl-4-chlorophenyl)-N-methyl-N-{[1S]-1-phenyl-2-[1-pyrrolidinyl]ethyl}acetamide methanesulfonate] displayed a melting point of 220 to 222 °C. Moreover, the Ki in data set [1] (Ki (nM) [3H]-Diprenorphin κ) is 5.1 nM. Besides, the “Late Phase Formalin, % @ 300” value in data set [3] amounted to 65% @ 300.
The corresponding values for `CNS(=O)(=O)c1cc(CC(=O)N(C)[C@H](CN2CCCC2)c2ccccc2)ccc1F.Cl` [Example 3o, 2-[3-(N-Methylsulfamoyl)-4-fluorophenyl]-N-methyl-N-{[1S]-1-phenyl-2-[1-pyrrolidinyl]ethyl}acetamide hydrochloride] are 278 to 280 °C, 30.5 nM and 59% @ 300.
The corresponding values for `CN(C(=O)Cc1ccc(C(F)(F)F)cc1NC(=O)/C=C\C(=O)O)[C@H](CN1CCCC1)c1ccccc1` [Example 3z] are 153 to 155 °C (dec.), 1.7 nM and 98% @ 300.
In turn, `COc1cc(CC(=O)N(C)[C@H](CN2CCCC2)c2ccccc2)c(S(=O)(=O)N(C)C)cc1OC` [Example 136, 2-[2-(N-Dimethylsulfamoyl)-4,5-dimethoxyphenyl]-N-methyl-N-[(1S)-1-phenyl-2-[(1-pyrrolidinyl)ethyl]]acetamide] yielded a Ki in data set [1] (Ki (nM) [3H]-Diprenorphin κ) of 0.44 nM. In addition, in data set [3], the “Late Phase Formalin (i. paw), % @ 300” value amounted to 97% @ 300.
For the compound `COc1cc(CC(=O)N(C)[C@H](CN2CCCC2)c2ccccc2)c(S(=O)(=O)N2CCN(C)CC2)cc1OC` [Example 138], the Ki in data set [1] (setting [4]) is 1.3 nM. For the same compound, the “Late Phase Formalin (i. paw), % @ 300” value in data set [3] was found to be 80% @ 300.
Compound `COc1cc(CC(=O)N(C)[C@H](CN2CC[C@H](O)C2)c2ccccc2)c(S(=O)(=O)N2CCOCC2)cc1OC` [Example 141, 2-[2-N-(Morpholinesulfamoyl)-4,5-dimethoxyphenyl]-N-methyl-N-[(1S)-1-phenyl-2-[1-(3S)-(3-hydroxypyrrolidinyl)ethyl]]acetamide] showed a Ki in data set [1] (Ki (nM) [3H]-Diprenorphin κ) of 1.3 nM. Further, the “Late Phase Formalin (i. paw), % @ 300” value in data set [3] stood at 98% @ 300.
With `COc1cc(CC(=O)N(C)[C@H](CN2CCCC2)c2ccccc2)c(S(=O)(=O)N2CCCC2)c(OC)c1OC` [Example 143, 2-[2-(N-Pyrrolidinesulfamoyl)-3,4,5-trimethoxyphenyl]-N-methyl-N-[(1S)-1-phenyl-2-[(1-pyrrolidinyl)ethyl]]acetamide], the inhibition constant Ki in data set [1] (setting [4]) worked out at 2.1 nM. Moreover, the “Late Phase Formalin (i. paw), % @ 300” value in data set [3] worked out at 98% @ 300.
The like results for `CNS(=O)(=O)c1cc(OC)ccc1CC(=O)N(C)[C@H](CN1CCCC1)c1ccccc1` [Example 145, 2-[2-(N-Methylsulfamoyl)-4-methoxyphenyl]-N-methyl-N-[(1S)-1-phenyl-2-[(1-pyrrolidinyl)ethyl]]acetamide] were, in that order, 20.5 nM and 83% @ 300.
In data set [1] (Ki (nM) [3H]-Diprenorphin κ), `CNS(=O)(=O)c1ccc(CC(=O)N(C)[C@H](CN2CC[C@H](O)C2)c2ccccc2)cc1` [Example 146, 2-[4-N-(Methylsulfamoyl)-phenyl]-N-methyl-N-[(1S)-1-phenyl-2-[1-(3S)-(3-hydroxypyrrolidinyl)ethyl]]acetamide] displayed a Ki of 1 nM. In data set [3], the “Late Phase Formalin (i. paw), % @ 300” value is 52% @ 300.
The compound `CN(C(=O)Cc1ccc(Cl)c(Cl)c1)[C@H]1c2cc(NC(=O)/C=C\C(=O)O)ccc2CC[C@@H]1N1CCCC1` [II-24] gave an inhibition constant Ki in data set [1] (Ki (nM) [3H] Diprenorphin κ) of 28 nM. Further, the “Late Phase Formalin, % @ 300 μg” value in data set [3] was 69% @ 300 μg.
With “(S)-2-(2-N-Methylsulfonamido-2-aminophenyl)-N-methyl-N-1-(4-hydroxyphenyl)-2-(1-pyrrolidinyl)ethyl]acetamide [Example 129B]”, the Ki in data set [1] (setting [4]) was found to be 75 nM. Further, the “Late Phase Formalin (i. paw), % @ 300” value in data set [3] was more than 46% @ 300.
For the compound “N-[1R,2R-trans-4-Trifluoromethyl-N-methyl-N-[2-(1-pyrrolidinyl)cyclohexyl]-phenylacetamido]glycine Hydrochloride [Example 4k]”, in data set [1], the “[3H]-Diprenorphin, % @ 1 μM” value amounted to 28% @ 1 μM. In data set [3], the “Formalin (% A @ 300 μg i-paw)” value is reported as 80% @ 300.
On to “N-[1S. 2S-trans-4-Trifluoromethyl-N-methyl-N-[2-(1-pyrrolidinyl)cyclohexyl]-phenylacetamido]glycine Hydrochloride [Example 4j]”, for which, in data set [1] (read-out: Ki(nM) [3H]-Diprenorphin), the inhibition constant (Ki) was 10.3 nM. Besides, in data set [3], the “Formalin (% A @ 300 μg i-paw)” value is given as 91% @ 300.
